The text below walks through data of patent US20130178493A1, “USE OF 14,15-DIHYDRO-20,21-DINOREBURNAMENIN-14-OL FOR THE TREATMENT AND/OR PREVENTION OF SERIOUS DEPRESSION AND SLEEP/WAKING CYCLE DISORDERS” (BIOCORTECH, priority 2004, published 2013).

Data set [1] relates to mice. The conditions noted are these: mouse, in vivo, iv. Here is the method:
Acute toxicity is determined on batches of 10 male and female mice, weighing from 20 to 22 g, fasting since the previous evening.
The product is administered intravenously, in solution in physiological saline solution, to which a few drops of hydrochloric acid have been added (products to be tested are then in hydrochloric solution).
Mortality is recorded daily for one week. Values of the lethal doses 50 (LD 50) were determined using the method given by Lichfield J. T. and Wilcoxon F. (J. Pharm. Exp. Therap. 96:99, 1949).

Data set [2] deals with immunopositive neurones for TH in LC. As to the kind of experiment: Immunocytochemistry of tyrosine hydroxylase immunopositive neurones in locus caeruleus after IP injection. It is filed as in vivo, Balb/c mice. Here is the method:
(§1) The anatomical data presented in table 1 below were obtained three days after a single injection or after a sequential treatment of five injections at a rate of one injection every three days. Immunopositive cells for tyrosine hydroxylase (TH) and fibres containing noradrenaline were identified by immunocytochemistry in the examined brain areas. Sleep records were made on a group of ten Balb/c mice. The electroencephalogram for each animal was recorded continuously for five days for acquisition of basal data about the wake-sleep cycle. Five animals were then treated by five IP injections every three days starting from day 5 until day 17 of the experiment. The other five animals were injected with the excipient at the same time After the last injection, all mice were deprived of sleep for 6 hours and records went on for another two consecutive days to measure the total REM sleep recovery. The given BC19 dose is 20 mg/kg for each injection, in all these experiments.

Data set [3] deals with cells expressing hypocretine in the hypothalamus. As to the kind of experiment: Number of hypocretine-expressing neurones in hypothalamus after IP injection. In kind it is in vivo, Balb/c mice.
Data set [4] has as its system fibres containing noradrenaline in the prefrontal cortex. The data set is described as follows: Density of noradrenaline-containing fibres in prefrontal cortex after sequential treatment. It is filed as in vivo, Balb/c mice. Here is the method: as §1
Data set [5] relates to Balb/c mice. As to the kind of experiment: REM sleep recovery after sleep deprivation (electroencephalogram records). It is filed as in vivo. Here is the method: as §1
Setting [6] is: sacrifice 3 days after a single IP injection (20 mg/kg), Balb/c mice.

With `OC1CC2CCCN3CCc4c(n1c1ccccc41)C23` (racemic) [BC19, 14,15-dihydro 20,21-dinoreburnamenin14-ol], in data set [1], the “Acute toxicity (mortality, LD 50)” value is recorded as “did not demonstrate any toxicity”. Also, the activity at 20 mg/kg worked out at 135% in data set [2] (Mus musculus, 72 h, sacrifice 3 days after a single IP injection (20 mg/kg), Balb/c mice, read-out: Total number of immunopositive neurones for TH in LC, % of controls); 156% in data set [4] (Mus musculus, 72 h, sequential treatment: five IP injections, one every three days, 20 mg/kg, Balb/c mice, read-out: Density of fibres containing noradrenaline in the prefrontal cortex, % of controls); 151 ± 11% in data set [5] (Mus musculus, deprived mice (6 hours sleep deprivation), after five IP injections every three days, 20 mg/kg, Balb/c mice, read-out: Duration of REM sleep during the recovery period, % of controls without sleep deprivation). Further, in data set [2] (injected into Balb/c mice), the “Effect on noradrenergic phenotype in locus caeruleus (in words)” value is given as “restoring the noradrenergic phenotype in a significant population of locus caeruleus”. Besides, the “Total number of immunopositive neurones for TH in LC” value in data set [2] (setting [6]) was 1228 ± 24. In data set [3] (injected into Balb/c mice), the “Effect on hypocretine phenotype in neurones of the hypothalamus (in words)” value is reported as “restoring the hypocretine phenotype in a sub-population of neurones of the hypothalamus”. The “Number of neurones in the posterior third of the group of cells expressing hypocretine in the hypothalamus” value in data set [3] (setting [6]) is given as 671 ± 24. Further, the “Number of neurones in the posterior third of the group of cells expressing hypocretine in the hypothalamus, % of controls” value in data set [3] (setting [6]) was “(121 ± 4%)”. In addition, the “Effect on noradrenergic innervation in the prefrontal cortex (in words)” value in data set [4] (injected into Balb/c mice) is “restoring noradrenergic innervation in the prefrontal cortex”. In addition, in data set [4] (sequential treatment: five IP injections, one every three days, 20 mg/kg, Balb/c mice), the “Density of fibres containing noradrenaline in the prefrontal cortex” value is given as 0.050 ± 0.003 μm/μm^2. Besides, the “Duration of REM sleep during the recovery period” value in data set [5] (deprived mice (6 hours sleep deprivation), after five IP injections every three days, 20 mg/kg, Balb/c mice) stood at 110 ± 8 mn. Further, in data set [5] (injected into Balb/c mice), the “Effect on recovery of REM sleep after sleep privation (in words)” value is recorded as “reversing the inability of these consanguine mice to recover REM”.
